Reference: ChEMBL document CHEMBL3407456, “Glycosylated enfuvirtide: a long-lasting glycopeptide with potent anti-HIV activity” (J Med Chem, 2015)

Tests used:
[1] = Half life in Sprague-Dawley rat at […], sc after 6 hrs; format: ADME, organism-based; conditions: in vivo
[2] = Cytotoxicity against human TZM-bl cells assessed as reduction cell viability at <12.5 uM after 2 days by XTT assay; format: cell-based; conditions: 48 h
[3] = Plasma concentration in Sprague-Dawley rat at […], sc after 6 hrs; format: ADME, organism-based
GP41 = GP41 (Human immunodeficiency virus 1, UniProt Q76270); assay: Binding affinity to HIV1 gp41 (46 residues) by surface plasmon resonance method
[4] = target: GP41 (Human immunodeficiency virus 1) (UniProt Q76270); assay: Binding affinity to HIV1 gp41 (46 residues) assessed as effect on protein secondary structure measured as alpha-helicity in PBS buffer at pH 7.2 by circular dichroism assay (reference value: 117 %)
[5] = test system: Human immunodeficiency virus 1; assay: Antiviral activity against HIV-1 SF33 infected in TZM-bl cells after 2 days by luciferase reporter gene assay; format: functional, organism-based; conditions: Human immunodeficiency virus 1, SF33, TZM-bl, 48 h

## enfuvirtide
[1]
  half-life at 6 h: 1.5 h
[2]
  Activity: Non-toxic
[3]
  concentration at 6 h: < 1 µM
GP41
  Kd: 0.182 µM
[4]
  Activity: 67%
[5]
  EC50: 0.003 µM
  EC90: 0.023 µM
